For 48 compounds, IC50 results are on record in US20240398757A1 (COCRYSTAL PHARMA, INC., priority 2022, published 2024).

In the experiment the target is T1, SARS2 protease (Severe acute respiratory syndrome coronavirus 2, UniProt P0DTD1).
T1 construct: SARS2 protease was added to a final concentration of 30 nM
Kind of experiment: SARS-CoV-2 protease inhibition assay (SARS2 FRET protease assay). The format is biochemical. The settings on record: IC50 (μM), SARS2 protease 30 nM, peptide substrate 1.3 μM, 120 minutes at 37° C., compounds 20 μM to 0.075 nM.

What is called IC50 is the point on the concentration scale where inhibition reaches its midpoint. A higher IC50 goes with a need for much substance. Regarding `CC(C)C[C@H](NC(=O)O[C@H](c1cccc(Cl)c1)C(C)(C)c1cccc(Cl)c1)C(=O)N[C@@H](C[C@@H]1CCNC1=O)C(=O)C(=O)NC1CC1` [Compound A147], the IC50 was 0.558 µM.

Turning to `CCC[C@H](NC(=O)O[C@@H](c1ccc(F)cc1)C(F)(F)c1cccc(Cl)c1)C(=O)N[C@H](C=O)C[C@@H]1CCNC1=O` [Compound A148], the IC50 is 0.007 µM.

For the compound `CC(C)C[C@H](NC(=O)O[C@H](c1ccc(F)cc1)C(F)(F)c1cccc(Cl)c1)C(=O)N[C@H](C=O)C[C@@H]1CCNC1=O` [Compound A149], 0.0001 µM corresponded to half-maximal inhibition (IC50).

As for `CCCC[C@H](NC(=O)O[C@@H](c1ccccc1)C(F)(F)c1cccc(Cl)c1)C(=O)N[C@H](C=O)C[C@@H]1CCCNC1=O` [Compound A150], the IC50 is < 0.0001 µM. As to `CCCCC[C@H](NC(=O)O[C@@H](c1ccccc1)C(F)(F)c1cccc(Cl)c1)C(=O)N[C@H](C=O)C[C@@H]1CCNC1=O` [Compound A151], the IC50 was 0.0002 µM. As for `CC(C)C[C@H](NC(=O)O[C@H](c1ccccc1)C(F)(F)c1cccc(F)c1)C(=O)N[C@H](C=O)C[C@@H]1CCNC1=O` [Compound A152], the figure is 0.0078 µM; as for `CCC[C@H](NC(=O)O[C@@H](c1ccccc1)C(F)(F)c1cccc(Cl)c1)C(=O)N[C@H](C=O)C[C@@H]1CCNC1=O` [Compound A153], 0.0006 µM; as for `O=C[C@H](C[C@@H]1CCCNC1=O)NC(=O)[C@H](CC1CCCCC1)NC(=O)O[C@@H](c1ccccc1)C(F)(F)c1cccc(Cl)c1` [Compound A154], 0.334 µM. Compound `O=C[C@H](C[C@@H]1CCCNC1=O)NC(=O)[C@H](CC1CCCCC1)NC(=O)O[C@H](c1ccccc1)C(F)(F)c1cccc(Cl)c1` [Compound A155] displayed a 50% inhibitory concentration (IC50) of 0.611 µM. The same measure for `O=C[C@H](C[C@@H]1CCNC1=O)NC(=O)[C@H](CC1CC1)NC(=O)O[C@@H](c1ccccc1)C(F)(F)c1cccc(Cl)c1` [Compound A156]: 0.289 µM. `O=C[C@H](C[C@@H]1CCNC1=O)NC(=O)[C@H](CC1CC1)NC(=O)O[C@H](c1ccccc1)C(F)(F)c1cccc(Cl)c1` [Compound A157] displayed an IC50 of 0.0002 µM. The same measure for `CC(C)C[C@H](NC(=O)O[C@@H](c1ccccc1)C(C)(C)c1cccc(Cl)c1)C(=O)N[C@H](C=O)C[C@@H]1CCCNC1=O` [Compound A158]: 0.002 µM.

In the case of `CCCC[C@H](NC(=O)O[C@@H](c1ccc(F)cc1)C(F)(F)c1cccc(Cl)c1)C(=O)N[C@H](C=O)C[C@@H]1CCNC1=O` [Compound A159], inhibition was half-maximal at 0.003 µM (IC50). As for `CCCC[C@H](NC(=O)O[C@H](c1ccc(F)cc1)C(F)(F)c1cccc(Cl)c1)C(=O)N[C@H](C=O)C[C@@H]1CCNC1=O` [Compound A160], the figure is 0.47 µM. The same measure for `O=C[C@H](C[C@H]1CCNC1=O)NC(=O)[C@H](CC1CCCCC1)NC(=O)OC(c1ccccc1)C(F)(F)c1cccc(Cl)c1` (stereo partly drawn) [Compound A161]: 0.582 µM. For `O=C[C@H](C[C@@H]1CCNC1=O)NC(=O)[C@H](CCC(F)F)NC(=O)OC(c1ccccc1)C(F)(F)c1cccc(Cl)c1` (stereo partly drawn) [Compound A163, 2-(3-chlorophenyl)-2,2-difluoro-1-phenylethyl ((S)-5,5-difluoro-1-oxo-1-(((S)-1-oxo-3-((S)-2-oxopyrrolidin-3-yl)propan-2-yl)amino)pentan-2-yl)carbamate], the midpoint of inhibition, the IC50, lay at 0.017 µM.

The compound `CCC[C@H](NC(=O)O[C@@H](c1ccccc1)C(F)(F)c1cccc(F)c1)C(=O)N[C@H](C=O)C[C@@H]1CCNC1=O` [Compound A166] yielded an IC50 of 0.0025 µM. `CCCC[C@H](NC(=O)OC(c1ccccc1)C(F)(F)c1cccc(Cl)c1)C(=O)N[C@@H](C[C@H]1CCNC1=O)C(=O)C(=O)NC1CC1` (stereo partly drawn) [Compound A168] returned an IC50 of 0.75 µM. With `O=C(N[C@@H](CC1CCCCC1)C(=O)N[C@@H](C[C@H]1CCNC1=O)C(=O)C(=O)NC1CC1)OC(c1ccccc1)C(F)(F)c1cccc(Cl)c1` (stereo partly drawn) [Compound A169], the IC50 turned out to be 1.25 µM. Compound `CC(C)C[C@H](NC(=O)OC(c1ccccc1)C(F)(F)c1cccc(C2CC2)c1)C(=O)N[C@@H](C[C@@H]1CCNC1=O)C(=O)C(=O)NC1CC1` (stereo partly drawn) [Compound A170] returned an IC50 of 0.0002 µM. As for `CC(C)C[C@H](NC(=O)OC(c1ccccc1)C(C)(C)c1cccc(C(F)(F)F)c1)C(=O)N[C@H](C=O)C[C@@H]1CCNC1=O` (stereo partly drawn) [Compound A171], the figure is 0.0001 µM; as for `CCC[C@H](NC(=O)O[C@H](c1ccccc1)C(F)(F)c1cccc(F)c1)C(=O)N[C@H](C=O)C[C@@H]1CCNC1=O` [Compound A172], 0.0185 µM. The same measure for `CCNC(=O)C(=O)[C@H](C[C@@H]1CCNC1=O)NC(=O)[C@H](CC1CC1)NC(=O)O[C@@H](c1ccccc1)C(F)(F)c1cccc(Cl)c1` [Compound A174]: 0.0014 µM; for `O=C(N[C@@H](CC1CCCCC1)C(=O)N[C@@H](C[C@@H]1CCNC1=O)C(=O)C(=O)NC1CC1)O[C@H](c1ccccc1)C(F)(F)c1cccc(Cl)c1` [Compound A175]: 1.36 µM.

Consider `O=C(N[C@@H](CC1CC1)C(=O)N[C@@H](C[C@@H]1CCNC1=O)C(=O)C(=O)NC1CC1)O[C@@H](c1ccccc1)C(F)(F)c1cccc(Cl)c1` [Compound A176], for which the IC50 stood at 0.002 µM. As for `CCCC[C@H](NC(=O)O[C@H](c1ccccc1)C(C)(C)c1cccc(Cl)c1)C(=O)N[C@@H](C[C@@H]1CCNC1=O)C(=O)C(=O)NC1CC1` [Compound A178], the figure is 1.04 µM. The same measure for `O=C(N[C@@H](CCC(F)F)C(=O)N[C@@H](C[C@@H]1CCNC1=O)C(=O)C(=O)NC1CC1)OC(c1ccccc1)C(F)(F)c1cccc(Cl)c1` (stereo partly drawn) [Compound A179, 2-(3-chlorophenyl)-2,2-difluoro-1-phenylethyl ((S)-1-(((S)-4-(cyclopropylamino)-3,4-dioxo-1-((S)-2-oxopyrrolidin-3-yl)butan-2-yl)amino)-5,5-difluoro-1-oxopentan-2-yl)carbamate]: 0.006 µM; for `O=C(N[C@@H](CCCF)C(=O)N[C@@H](C[C@@H]1CCNC1=O)C(=O)C(=O)NC1CC1)OC(c1ccccc1)C(F)(F)c1cccc(Cl)c1` (stereo partly drawn) [Compound A180]: 0.095 µM; for `CC(C)C[C@H](NC(=O)OC(C(C)C)C(F)(F)c1cccc(C2CC2)c1)C(=O)N[C@@H](C[C@@H]1CCNC1=O)C(=O)C(=O)NC1CC1` (stereo partly drawn) [Compound A181]: 0.52 µM. `CC(C)C[C@H](NC(=O)OC(c1ccccc1)C(F)(F)c1cccc(C(C)C)c1)C(=O)N[C@@H](C[C@@H]1CCNC1=O)C(=O)C(=O)NC1CC1` (stereo partly drawn) [Compound A182] registered an IC50 of 0.001 µM. As for `CCCC[C@H](NC(=O)OC(c1ccccc1)C(F)(F)c1cccc(Cl)c1)C(=O)N[C@H](C=O)C[C@H]1CCNC1=O` (stereo partly drawn) [Compound A183], the figure is 0.019 µM; as for `CCCC[C@H](NC(=O)OC(c1ccccc1)C(F)(F)c1cccc(Cl)c1)C(=O)N[C@@H](C[C@H]1CCNC1=O)C(=O)C(=O)NCC` (stereo partly drawn) [Compound A185], 0.91 µM. As for `CCCC(=O)OC([C@H](C[C@@H]1CCNC1=O)NC(=O)[C@H](CC1CCCCC1)NC(=O)O[C@H](c1ccccc1)C(F)(F)c1cccc(Cl)c1)S(=O)(=O)O` (stereo partly drawn) [Compound A186], the figure is 0.319 µM; as for `CCNC(=O)C(=O)[C@H](C[C@H]1CCNC1=O)NC(=O)[C@H](CC(C)C)NC(=O)OC(c1ccccc1)C(F)(F)c1cccc(Cl)c1` (stereo partly drawn) [Compound A188], 0.392 µM. The compound `CCCC[C@H](NC(=O)OC(c1ccccc1)C(C)(C)c1cccc(Cl)c1)C(=O)N[C@@H](C[C@@H]1CCNC1=O)C(=O)C(=O)NC1CC1` (stereo partly drawn) [Compound A189] showed an IC50 of 1.37 µM.

With `CC(C)C[C@H](NC(=O)OC(c1ccccc1)C(F)(F)c1cccc(-c2ccccc2)c1)C(=O)N[C@@H](C[C@@H]1CCNC1=O)C(=O)C(=O)NC1CC1` (stereo partly drawn) [Compound A191], the IC50 is 0.006 µM. As for `CCCC[C@H](NC(=O)OC(c1ccccc1)C(F)(F)c1cccc(Cl)c1)C(=O)NC(C)(C=O)CC1CCNC1=O` (stereo partly drawn) [Compound A192], the figure is 0.978 µM; as for `CC(C)C[C@H](NC(=O)O[C@@H](c1ccccc1)C(F)(F)c1cccc(C(C)C)c1)C(=O)N[C@@H](C[C@@H]1CCNC1=O)C(=O)C(=O)NC1CC1` [Compound A193], 0.135 µM. As for `CC(C)C[C@H](NC(=O)O[C@H](c1ccccc1)C(F)(F)c1cccc(C(C)C)c1)C(=O)N[C@@H](C[C@@H]1CCNC1=O)C(=O)C(=O)NC1CC1` [Compound A194], the figure is 0.005 µM. The same measure for `CCCC[C@H](NC(=O)O[C@@H](c1ccccc1)C(F)(F)c1cccc(Cl)c1)C(=O)N[C@@H](C[C@@H]1CCCNC1=O)C(=O)C(=O)NC1CC1` [Compound A195]: 0.211 µM.

Regarding `CC(C)C[C@H](NC(=O)OC(c1ccccc1)C(C)(C)c1cccc(C(F)(F)F)c1)C(=O)N[C@@H](C[C@@H]1CCNC1=O)C(=O)C(=O)NC1CC1` (stereo partly drawn) [Compound A197], the IC50 came out at 0.027 µM. The same measure for `CC(C)C[C@H](NC(=O)OC(C(C)C)C(F)(F)c1cccc(C2CC2)c1)C(=O)N[C@H](C=O)C[C@@H]1CCNC1=O` (stereo partly drawn) [Compound A198]: 0.006 µM; for `CCCC[C@H](NC(=O)O[C@@H](c1ccc(F)cc1)C(F)(F)c1cccc(Cl)c1)C(=O)N[C@@H](C[C@@H]1CCNC1=O)C(=O)C(=O)NC1CC1` [Compound A199]: 0.494 µM. The same measure for `CCCC[C@H](NC(=O)O[C@H](c1ccc(F)cc1)C(F)(F)c1cccc(Cl)c1)C(=O)N[C@@H](C[C@@H]1CCNC1=O)C(=O)C(=O)NC1CC1` [Compound A200]: 0.0004 µM. As for `CCCC[C@H](NC(=O)O[C@H](c1cccc(F)c1)C(F)(F)c1cccc(F)c1)C(=O)N[C@H](C=O)C[C@@H]1CCNC1=O` [Compound A201], the figure is 0.001 µM. In turn, `CC(C)C[C@H](NC(=O)O[C@@H](c1ccc(F)cc1)C(C)(C)c1cccc(Cl)c1)C(=O)N[C@H](C=O)C[C@@H]1CCNC1=O` [Compound A202] gave an IC50 of 0.021 µM.

In turn, `NC(=O)C(=O)[C@H](C[C@@H]1CCNC1=O)NC(=O)[C@H](CC1CCCCC1)NC(=O)OC(c1ccccc1)C(F)(F)c1cccc(Cl)c1` (stereo partly drawn) [Compound A204] showed an IC50 of 0.001 µM.

The compound `O=C[C@H](C[C@@H]1CCNC1=O)NC(=O)[C@H](CC1CCC1)NC(=O)O[C@H](c1ccccc1)C(F)(F)c1cccc(Cl)c1` [Compound A205] showed an IC50 of 0.0002 µM.
